Results reported in US20090118332A1, “Therapeutic Agents - 551” (AstraZeneca AB, priority 2006, published 2009).

Molecular target: T1, human Fatty Acid Synthase (Homo sapiens, UniProt P49327)
T1 construct: made in house
Test: Human FAS enzyme assay (decrease in NADPH fluorescence)
Format: biochemical
Conditions: FAS enzyme assay, IC50 from fitted sigmoid curves
Procedure, shortened: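 In-house human FAS was preincubated with compound and NADPH for 15 min at room temperature in 0.1 M Tris pH 7.5 with EDTA, glutathione and BSA. Malonyl CoA and acetyl CoA (500 μM and 150 μM in the added mix) were then added for 60 min. IC50 came from time-zero-subtracted NADPH fluorescence (340/460 nm).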

T1 sequence (P49327 whole entry): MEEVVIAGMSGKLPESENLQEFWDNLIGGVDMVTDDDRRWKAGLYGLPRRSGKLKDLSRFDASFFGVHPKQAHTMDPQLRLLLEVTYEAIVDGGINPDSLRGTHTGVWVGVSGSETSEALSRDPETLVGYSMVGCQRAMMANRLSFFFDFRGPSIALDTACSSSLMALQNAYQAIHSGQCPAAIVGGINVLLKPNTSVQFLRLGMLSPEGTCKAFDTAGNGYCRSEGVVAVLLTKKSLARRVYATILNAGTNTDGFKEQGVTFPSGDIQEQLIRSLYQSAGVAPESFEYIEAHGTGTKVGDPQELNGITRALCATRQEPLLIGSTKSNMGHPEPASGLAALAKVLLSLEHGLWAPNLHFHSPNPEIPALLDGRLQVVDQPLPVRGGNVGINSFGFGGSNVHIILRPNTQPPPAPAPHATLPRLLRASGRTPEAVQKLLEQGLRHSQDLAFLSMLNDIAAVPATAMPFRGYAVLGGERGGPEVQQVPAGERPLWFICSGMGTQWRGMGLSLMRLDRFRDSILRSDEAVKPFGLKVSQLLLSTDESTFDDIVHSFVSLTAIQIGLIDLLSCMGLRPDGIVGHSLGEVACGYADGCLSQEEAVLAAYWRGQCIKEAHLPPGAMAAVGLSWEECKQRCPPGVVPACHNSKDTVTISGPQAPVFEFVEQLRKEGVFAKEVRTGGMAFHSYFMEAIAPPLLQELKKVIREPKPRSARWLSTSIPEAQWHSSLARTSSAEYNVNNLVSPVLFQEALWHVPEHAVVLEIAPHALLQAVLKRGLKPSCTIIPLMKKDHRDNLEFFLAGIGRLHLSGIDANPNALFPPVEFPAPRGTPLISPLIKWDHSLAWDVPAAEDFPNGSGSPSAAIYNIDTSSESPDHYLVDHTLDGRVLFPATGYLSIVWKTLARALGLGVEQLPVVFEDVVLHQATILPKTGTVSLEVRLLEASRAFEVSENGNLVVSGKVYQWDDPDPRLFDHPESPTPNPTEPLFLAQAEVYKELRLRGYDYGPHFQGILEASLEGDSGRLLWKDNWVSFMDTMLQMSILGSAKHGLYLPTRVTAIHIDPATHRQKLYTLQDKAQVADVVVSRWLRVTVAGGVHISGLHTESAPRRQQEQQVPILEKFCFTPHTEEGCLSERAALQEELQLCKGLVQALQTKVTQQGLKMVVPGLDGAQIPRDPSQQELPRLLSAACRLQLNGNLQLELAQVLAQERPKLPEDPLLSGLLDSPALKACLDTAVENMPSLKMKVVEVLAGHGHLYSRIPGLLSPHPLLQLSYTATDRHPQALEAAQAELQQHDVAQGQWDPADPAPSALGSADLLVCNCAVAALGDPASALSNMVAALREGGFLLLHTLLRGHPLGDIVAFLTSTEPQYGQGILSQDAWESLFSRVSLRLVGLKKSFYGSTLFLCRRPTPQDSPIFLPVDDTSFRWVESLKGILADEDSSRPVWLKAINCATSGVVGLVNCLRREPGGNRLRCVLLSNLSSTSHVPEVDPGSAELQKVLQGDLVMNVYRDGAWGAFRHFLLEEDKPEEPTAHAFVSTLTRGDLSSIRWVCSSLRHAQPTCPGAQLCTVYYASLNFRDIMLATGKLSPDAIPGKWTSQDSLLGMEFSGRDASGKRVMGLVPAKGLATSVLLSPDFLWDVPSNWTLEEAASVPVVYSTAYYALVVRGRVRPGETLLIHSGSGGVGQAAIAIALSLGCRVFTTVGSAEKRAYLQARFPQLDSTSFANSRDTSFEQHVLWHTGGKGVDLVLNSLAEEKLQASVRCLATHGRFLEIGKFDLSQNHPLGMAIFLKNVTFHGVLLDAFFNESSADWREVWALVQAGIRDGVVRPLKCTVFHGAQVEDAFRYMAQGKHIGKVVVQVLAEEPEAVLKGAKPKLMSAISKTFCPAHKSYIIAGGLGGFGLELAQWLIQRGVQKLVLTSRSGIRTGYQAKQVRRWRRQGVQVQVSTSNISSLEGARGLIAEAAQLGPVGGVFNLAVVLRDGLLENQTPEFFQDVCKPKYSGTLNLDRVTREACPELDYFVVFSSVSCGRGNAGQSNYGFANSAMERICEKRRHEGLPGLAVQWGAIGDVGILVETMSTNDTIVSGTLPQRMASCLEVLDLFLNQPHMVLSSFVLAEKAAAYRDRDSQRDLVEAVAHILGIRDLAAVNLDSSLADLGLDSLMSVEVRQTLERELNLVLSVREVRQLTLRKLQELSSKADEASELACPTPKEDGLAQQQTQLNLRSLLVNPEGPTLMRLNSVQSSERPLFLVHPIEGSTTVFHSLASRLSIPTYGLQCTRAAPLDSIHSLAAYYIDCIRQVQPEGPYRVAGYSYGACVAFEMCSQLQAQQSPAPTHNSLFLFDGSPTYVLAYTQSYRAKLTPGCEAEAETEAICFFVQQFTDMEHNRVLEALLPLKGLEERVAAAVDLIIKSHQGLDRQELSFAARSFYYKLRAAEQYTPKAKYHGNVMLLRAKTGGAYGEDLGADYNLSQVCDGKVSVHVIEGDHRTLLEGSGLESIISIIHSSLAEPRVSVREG

**Q.** With `COC(=O)C(CCn1cnnn1)NC(=O)Nc1cc(C(=O)N2CCC(c3ccc(C#N)cc3)CC2)ccc1C` (stereo not shown) [Methyl 2-[[5-[4-(4-cyanophenyl)piperidine-1-carbonyl]-2-methylphenyl]carbamoylamino]-4-(tetrazol-1-yl)butanoate] as the compound, how does the “IC50, inhibition of human Fatty Acid Synthase” value (“IC50, inhibition” for short) read?
**A.** do not have IC50s in the range of about 0.001 μM to about 30 μM

**Q.** How did the “IC50, inhibition” value turn out when `COC(=O)[C@@H](NC(=O)Nc1cc(C(=O)N2CCC(c3ccc(C#N)cc3)CC2)ccc1C)c1ccccc1` [Methyl (2S)-2-[[5-[4-(4-cyanophenyl)piperidine-1-carbonyl]-2-methylphenyl]carbamoylamino]-2-phenylacetate] was run?
**A.** do not have IC50s in the range of about 0.001 μM to about 30 μM

**Q.** Which “IC50, inhibition” value does the source give for `COC(=O)[C@H](Cc1cn(C)cn1)NC(=O)Nc1cc(C(=O)N2CCC(c3ccc(C#N)cc3)CC2)ccc1C` [Methyl (2S)-2-[[5-[4-(4-cyanophenyl)piperidine-1-carbonyl]-2-methylphenyl]carbamoylamino]-3-(1-methylimidazol-4-yl)propanoate] here?
**A.** do not have IC50s in the range of about 0.001 μM to about 30 μM

**Q.** `COC(=O)[C@@H](NC(=O)Nc1cc(C(=O)N2CCC(c3ccc(C#N)cc3)CC2)ccc1C)C(C)C` [Methyl (2S)-2-[[5-[4-(4-cyanophenyl)piperidine-1-carbonyl]-2-methylphenyl]carbamoylamino]-3-methylbutanoate] was tested. Which “IC50, inhibition” value did it give?
**A.** do not have IC50s in the range of about 0.001 μM to about 30 μM

**Q.** Which “IC50, inhibition” value does the source give for `COC(=O)[C@H](CCc1nnn[nH]1)NC(=O)Nc1cc(C(=O)N2CCC(c3ccc(C#N)cc3)CC2)ccc1C` [Methyl (2S)-2-[[5-[4-(4-cyanophenyl)piperidine-1-carbonyl]-2-methylphenyl]carbamoylamino]-4-(1H-tetrazol-5-yl)butanoate] here?
**A.** do not have IC50s in the range of about 0.001 μM to about 30 μM

**Q.** How did the “IC50, inhibition” value turn out when `Cc1ccc(C(=O)N2CCC(c3ccc(C#N)cc3)CC2)cc1NC(=O)N(C)CCNC(=O)C(C)C` [N-[2-[[5-[4-(4-cyanophenyl)piperidine-1-carbonyl]-2-methylphenyl]carbamoyl-methylamino]ethyl]-2-methylpropanamide] was run?
**A.** do not have IC50s in the range of about 0.001 μM to about 30 μM

**Q.** How did the “IC50, inhibition” value turn out when `Cc1ccc(C(=O)N2CCC(c3ccc(C#N)cc3)CC2)cc1NC(=O)N1CCS(=O)(=O)CC1` [N-[5-[4-(4-cyanophenyl)piperidine-1-carbonyl]-2-methylphenyl]-1,1-dioxo-1,4-thiazinane-4-carboxamide] was run?
**A.** do not have IC50s in the range of about 0.001 μM to about 30 μM
